Source: ChEMBL document CHEMBL1138655, “Synthesis and biological studies of 1-amino beta-carbolines” (Bioorg Med Chem Lett, 2004)
≈ marks a conversion by molar mass, not a printed value.

What was measured:
[1] = tested on: Trypanosoma brucei rhodesiense; test: inhibitory concentration against Trypanosoma brucei rhodesiense determined; type: functional, organism-based
[2] = tested on: Plasmodium falciparum; test: Inhibitory concentration for Plasmodium falciparum; type: functional, organism-based
[3] = tested on: Trypanosoma cruzi; test: inhibitory concentration against Trypanosoma cruzi was determined; type: functional, organism-based
[4] = tested on: Leishmania donovani; test: inhibitory concentration against Leishmania donovani was determined; type: functional, organism-based
[5] = tested on: HT-29; test: Concentration required for 50% growth inhibition against human colon HT-29 cell lines; type: functional
[6] = tested on: UACC-62; test: Concentration required for 50% growth inhibition against human melanoma UACC-62 cell lines; type: functional
[7] = tested on: HOP-92; test: Concentration required for 50% growth inhibition against human non small cell lung cancer HOP-92; type: functional
[8] = tested on: OVCAR-3; test: Concentration required for 50% growth inhibition against human ovarian OVCAR-3 cell lines; type: functional
[9] = tested on: K562; test: Concentration required for 50% growth inhibition against human leukemia K-562 cell lines; type: functional
[10] = tested on: M14; test: Concentration required for 50% growth inhibition against human melanoma M14 cell lines; type: functional
[11] = tested on: MDA-MB-231; test: Concentration required for 50% growth inhibition against human breast MDA-MB-231/ATCC cell lines; type: functional

IC50 [1]	IC50 [2]	IC50 [3]	IC50 [4]	GI50 [5]	GI50 [8]	GI50 [9]	GI50 [11]	Structure (SMILES)	GI50 [6]	GI50 [7]	GI50 [10]
0.61 µg/mL (≈ 1.75 µM)	0.35 µg/mL (≈ 1 µM)	6.5 µg/mL (≈ 18.6 µM)	> 90 µg/mL	–	–	–	–	c1ccc2c3cc[nH]c(N4CCN(N5CCCCCC5)CC4)c-3nc2c1	–	–	–
0.52 µg/mL (≈ 1.62 µM)	0.45 µg/mL (≈ 1.4 µM)	6.1 µg/mL (≈ 19 µM)	> 90 µg/mL	–	–	–	–	c1ccc2c3cc[nH]c(N4CCN(N5CCCC5)CC4)c-3nc2c1	–	–	–
1.8 µg/mL (≈ 5.37 µM)	0.39 µg/mL (≈ 1.16 µM)	2.35 µg/mL (≈ 7.01 µM)	> 90 µg/mL	–	–	–	–	c1ccc2c3cc[nH]c(N4CCN(N5CCCCC5)CC4)c-3nc2c1	–	–	–
0.63 µg/mL (≈ 1.95 µM)	0.41 µg/mL (≈ 1.27 µM)	5.8 µg/mL (≈ 17.9 µM)	> 90 µg/mL	–	–	–	–	CCN(CC)N1CCN(c2[nH]ccc3c4ccccc4nc2-3)CC1	–	–	–

Continued, molecule first:

Structure (SMILES)	IC50 [1]	IC50 [2]	IC50 [3]	IC50 [4]	GI50 [5]	GI50 [8]	GI50 [9]	GI50 [11]	GI50 [6]	GI50 [7]	GI50 [10]
c1ccc2c(c1)[nH]c1c(N3CCOCC3)nccc12	18.2 µg/mL (≈ 71.9 µM)	4.59 µg/mL (≈ 18.1 µM)	25.1 µg/mL (≈ 99.1 µM)	> 90 µg/mL	–	–	–	–	–	–	–
CCN(CC)CCCC(C)Nc1nccc2c1[nH]c1ccccc12 (configuration not stated)	0.13 µg/mL (≈ 0.401 µM)	0.42 µg/mL (≈ 1.29 µM)	3 µg/mL (≈ 9.25 µM)	> 90 µg/mL	22.9 µM	22.8 µM	12.2 µM	–	24 µM	4.5 µM	16.4 µM
c1ccc2c(c1)[nH]c1c(N3CCCCC3)nccc12	0.13 µg/mL (≈ 0.517 µM)	1.2 µg/mL (≈ 4.77 µM)	> 30 µg/mL	> 90 µg/mL	–	–	–	–	–	–	–
OC1CCCN(c2[nH]ccc3c4ccccc4nc2-3)C1 (configuration not stated)	8.9 µg/mL (≈ 33.3 µM)	3.4 µg/mL (≈ 12.7 µM)	19.3 µg/mL (≈ 72.4 µM)	> 90 µg/mL	–	–	–	–	–	–	–
OCCNc1[nH]ccc2c3ccccc3nc1-2	1.8 µg/mL (≈ 7.92 µM)	2.4 µg/mL (≈ 10.6 µM)	4.25 µg/mL (≈ 18.7 µM)	> 90 µg/mL	–	–	–	–	–	–	–
CN1CCN(c2nccc3c2[nH]c2ccccc23)CC1	0.63 µg/mL (≈ 2.37 µM)	0.62 µg/mL (≈ 2.33 µM)	4.3 µg/mL (≈ 16.1 µM)	> 90 µg/mL	–	19.9 µM	22.5 µM	3.9 µM	17.8 µM	18.6 µM	14.9 µM
CN(C)CCCNc1nccc2c1[nH]c1ccccc12	28.1 µg/mL (≈ 105 µM)	0.45 µg/mL (≈ 1.68 µM)	4.2 µg/mL (≈ 15.7 µM)	> 90 µg/mL	–	–	–	–	–	–	–
CCN(CC)CCCNc1nccc2c1[nH]c1ccccc12	0.18 µg/mL (≈ 0.607 µM)	0.64 µg/mL (≈ 2.16 µM)	1.62 µg/mL (≈ 5.47 µM)	> 90 µg/mL	2.7 µM	1.6 µM	3.2 µM	5.2 µM	2.3 µM	0.38 µM	2 µM
